Laboratory results as given in PubChem BioAssay (NCI).
Several values for one entry are separate records, joined by “and”; a condition that tells them apart may be missing. Identical values can stand only once.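 Each compound was tested at five concentrations against cells in 96-well plates for 48 hours. GI50: concentration for 50% inhibition of growth. At the TGI there is no net growth.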

What was measured:
Assay in all cases: NCI anticancer screen, dose series, 48 h
IGROV1 ovarian = system: IGROV1 ovarian
NCI-H226 lung = system: NCI-H226 lung
SW-620 colon = system: SW-620 colon
TK-10 renal = system: TK-10 renal
SR leukemia = system: SR leukemia
COLO 205 colon = system: COLO 205 colon
UACC-257 melanoma = system: UACC-257 melanoma
SNB-75 CNS = system: SNB-75 CNS
CCRF-CEM leukemia = system: CCRF-CEM leukemia
SF-539 CNS = system: SF-539 CNS

SMILES	GI50 (IGROV1 ovarian)	TGI (IGROV1 ovarian)	GI50 (NCI-H226 lung)	TGI (NCI-H226 lung)	GI50 (SW-620 colon)	TGI (SW-620 colon)	GI50 (TK-10 renal)	TGI (TK-10 renal)	GI50 (SR leukemia)	TGI (SR leukemia)	GI50 (COLO 205 colon)	TGI (COLO 205 colon)	GI50 (UACC-257 melanoma)	TGI (UACC-257 melanoma)	GI50 (SNB-75 CNS)	TGI (SNB-75 CNS)	GI50 (CCRF-CEM leukemia)	TGI (CCRF-CEM leukemia)	GI50 (SF-539 CNS)	TGI (SF-539 CNS)
COc1cc2nc(SCc3cc(OC)c(OC)c(OC)c3)n(Cc3ccccc3)c(=O)c2cc1OC	7.82 µM	> 70.5 µM	6.85 µM	> 100 µM	2500 nM	> 100 µM	10.8 µM	32.4 µM	0.533 µM	> 22.2 µM	1.74 µM	6.96 µM	5.25 µM	> 100 µM	0.876 µM	6.23 µM	3 µM	> 100 µM	2.81 µM	16.2 µM
CCC[CH2][Sn]([Cl])([Cl])[CH2]CCC	1.04 µM	1.62 µM	1.82 µM	5.01 µM	333 nM	1.24 µM	0.569 µM	1.77 µM	0.296 µM	1.21 µM	1.15 µM	3.2 µM	0.854 µM	2.26 µM	0.894 µM	2.28 µM	0.221 µM	0.781 µM	0.87 µM	2.19 µM
CC[n+]1oc(C(=O)c2ccc(Cl)cc2)c(-c2ccccc2)c1-c1ccccc1.[Cl][Fe]([Cl])([Cl])[Cl]	–	–	75.2 µM	> 100 µM	> 100000 nM	> 100 µM	33.4 µM	> 100 µM	33 µM	> 100 µM	50.7 µM	> 100 µM	–	15.5 µM	30.4 µM	> 100 µM	14.8 µM	39.4 µM	> 100 µM	> 100 µM
CCCCCCCCCCCCCCCCCC1=NC(C)(C)CN1CC(C)O (stereo not given)	10.1 µM	27.7 µM	18.8 µM	38.5 µM	2150 nM	4.78 µM	20.9 µM	39 µM	2.75 µM	> 100 µM	2.5 µM	6.61 µM	22.4 µM	40.6 µM	9.11 µM	23.6 µM	2.71 µM	7.39 µM	4.03 µM	19.1 µM
CCOC(=O)Nc1nc2ccc(OC)cc2s1	> 100 µM	> 100 µM	> 100 µM	> 100 µM	> 100000 nM	> 100 µM	> 100 µM	> 100 µM	8.14 µM	> 100 µM	> 100 µM	> 100 µM	> 100 µM	> 100 µM	> 100 µM	> 100 µM	> 100 µM	> 100 µM	> 100 µM	> 100 µM
CS(=O)(=O)CCNCc1cc(-c2cc3c(Nc4ccc(OCc5cccc(F)c5)c(Cl)c4)ncnc3s2)cs1	5.61 µM	> 25 µM	15.1 µM	> 25 µM	15000 nM	> 25 µM	3.16 µM	> 25 µM	7.39 µM	> 25 µM	9.61 µM	> 25 µM	12.9 µM	> 25 µM	7.9 µM	> 25 µM	11 µM	> 25 µM	9.92 µM	> 25 µM
COc1cc(OC)c(C(=O)/C=C/c2cc3c(cc2OCc2ccccc2)OC(C)(C)CC3)cc1CC=C(C)C	15 µM	> 25 µM	6.61 µM	22.1 µM	4310 nM	10.2 µM	8.89 µM	19.6 µM	2.77 µM	22.8 µM	3.97 µM	8.9 µM	13.1 µM	> 25 µM	2.44 µM	13.1 µM	4.02 µM	19.3 µM	4.53 µM	8.8 µM
CC1/C=C/[C@@]2(C)CCC(C(C)(C)O)C2C(O)C[C@](C)(O)/C=C/C1 (stereo not given in full)	–	> 100 µM	–	52 µM	–	> 100 µM	–	> 100 µM	–	> 100 µM	–	> 100 µM	–	> 100 µM	–	> 100 µM	–	> 100 µM	–	> 100 µM
C=C(CC(NC(=O)c1ccc(C(CC)Cc2cnc3nc(N)nc(N)c3n2)cc1)C(=O)O)C(=O)O (stereo not given)	–	> 100 µM	–	> 100 µM	–	–	–	> 100 µM	–	> 100 µM	–	> 100 µM	0.0599 µM	> 100 µM	–	> 100 µM	–	> 100 µM	–	> 100 µM
CC1CCC2(NC1)OC1CC3C4CC=C5CC(O)CCC5(C)C4CCC3(C)C1C2C (stereo not given)	–	> 100 µM	–	> 100 µM and 66.5 µM	–	> 100 µM	–	47.9 µM and 44.7 µM	–	9.63 µM and 12.4 µM	–	> 100 µM	–	> 100 µM	–	15.3 µM	–	40 µM and 41.5 µM	–	40.1 µM and 29.4 µM
[C](#Cc1ccccc1)[Hg][C]#Cc1ccccc1	29.7 µM	97.5 µM	28.1 µM	63.2 µM	35500 nM	> 100 µM	23.8 µM	50.7 µM	23.5 µM	> 100 µM	22.2 µM	48 µM	22.5 µM	41.6 µM	> 100 µM	> 100 µM	8.93 µM	> 100 µM	53.1 µM	> 100 µM
Cc1nc(-c2ccccc2)n2nc(NCCCN3CCOCC3)ncc12	13.8 µM	> 25 µM	> 8.17 µM	> 25 µM	> 25000 nM	> 25 µM	19.1 µM	> 25 µM	> 25 µM	> 25 µM	19.1 µM	> 25 µM	> 25 µM	> 25 µM	> 11.9 µM	> 25 µM	> 25 µM	> 25 µM	> 25 µM	> 25 µM
CCNc1cc(-c2cccc(OC(F)(F)F)c2)nc2ccc(N3CCCC3)cc12	1.78 µM	4.79 µM	1.67 µM	4.53 µM	1600 nM	3.47 µM	2.58 µM	8.09 µM	1.57 µM	5 µM	1.8 µM	4.21 µM	1.66 µM	3.46 µM	1.53 µM	4.5 µM	2.04 µM	8.69 µM	1.73 µM	3.36 µM
COc1ccc(-c2ccncc2)cc1C(N)=O	> 25 µM	> 25 µM	> 25 µM	> 25 µM	> 25000 nM	> 25 µM	> 25 µM	> 25 µM	> 25 µM	> 25 µM	> 25 µM	> 25 µM	> 25 µM	> 25 µM	> 25 µM	> 25 µM	> 25 µM	> 25 µM	> 25 µM	> 25 µM
O=C(/C=C/C12c3ccccc3C(c3ccccc31)C1C(=O)NC(=O)C12)c1ccc(Cl)cc1Cl (stereo not given)	1.97 µM	4.27 µM	2.14 µM	5.91 µM	2190 nM	4.58 µM	1.9 µM	3.5 µM	1.59 µM	4.68 µM	2.2 µM	4.24 µM	1.76 µM	3.46 µM	1.64 µM	3.08 µM	1.89 µM	7.23 µM	1.59 µM	2.96 µM
CCC(=O)c1c(NOC2OCC(OC(C)=O)C(OC(C)=O)C2OC(C)=O)nc(OC)n(C)c1=O (stereo not given)	–	> 100 µM	–	> 100 µM	–	> 100 µM	–	> 100 µM	–	> 100 µM	–	> 100 µM	–	> 100 µM	–	> 100 µM	–	> 100 µM	–	> 100 µM
CC(C)CCC[C@@H](C)[C@H]1CC[C@H]2[C@@H]3CC[C@H]4C[C@@H](CCC=C(c5cc(Cl)c(O)c(C(=O)O)c5)c5cc(Cl)c(O)c(C(=O)O)c5)CC[C@]4(C)[C@H]3CC[C@]12C	–	> 100 µM	–	> 100 µM	–	> 100 µM	–	> 100 µM	–	> 100 µM	–	> 100 µM	–	> 100 µM	–	> 100 µM	–	> 100 µM	–	> 100 µM
Cc1ncc(C(=O)Nc2ccc(CN3CCN(C)CC3)c(C(F)(F)F)c2)cc1C#Cc1cnc2cccnn12	0.268 µM	4.45 µM	0.204 µM	1.37 µM	239 nM	2.59 µM	0.797 µM	5.81 µM	0.293 µM	50 µM	0.2 µM	1.31 µM	0.531 µM	4.43 µM	1.04 µM	1.99 µM	0.199 µM	20.7 µM	0.485 µM	1.18 µM
CCC(O)c1ccc(Br)cc1NC(=O)c1cccc(Cl)c1 (stereo not given)	17.2 µM	92.6 µM	21.5 µM	64.6 µM	26600 nM	99.6 µM	41.7 µM	> 100 µM	24 µM	70.5 µM	18.8 µM	34.6 µM	18.4 µM	35.1 µM	10.8 µM	> 100 µM	20.5 µM	58.9 µM	31.8 µM	> 100 µM
O=S(=O)(NC1=NCCN1C(=S)SN1CCn2c1nsc2=S)c1cccc2ccccc12	10 µM	32.6 µM	30.6 µM	> 100 µM	33200 nM	> 100 µM	21.4 µM	64.8 µM	10.2 µM	45.6 µM	26.8 µM	> 100 µM	24.3 µM	97.2 µM	24.3 µM	> 100 µM	2.5 µM	> 100 µM	21.1 µM	46 µM
COc1ccc(OC)c(NC(=O)CCC/C(CC(=O)c2ccc(O)c(OC)c2)=N\Nc2nnc(C)n2N)c1	–	> 100 µM	–	> 100 µM	–	> 100 µM	–	> 100 µM	–	> 100 µM	–	> 100 µM	–	> 100 µM	–	> 100 µM	–	> 100 µM	–	> 100 µM
CC(=O)Oc1ccc(C23c4ccccc4C2(OC(C)=O)c2cc(OC(C)=O)ccc23)cc1 (stereo not given)	5.86 µM	27.2 µM	20.4 µM	63.2 µM	3730 nM	12.7 µM	6.23 µM	> 100 µM	3.14 µM	24.2 µM	14.5 µM	29.1 µM	22.9 µM	60.8 µM	6.49 µM	54.7 µM	3.05 µM	12.4 µM	6.48 µM	28.6 µM
NCCSSCCN	–	> 100 µM	–	> 100 µM	–	> 100 µM	–	> 100 µM	–	> 100 µM	–	> 100 µM	> 100 µM and 18.2 µM	> 100 µM	–	> 100 µM	–	> 100 µM	–	> 100 µM
O=C(O)c1ccc(CI)cc1	–	38.2 µM	–	44.1 µM	–	33.7 µM	–	–	–	59.1 µM	–	32.4 µM	–	38.9 µM	–	49.9 µM	–	26.9 µM	–	32.1 µM
CC1=CC(=O)CC2(C)CC[C@@H]3C[C@]12OC3(C)C (stereo not given in full)	–	> 100 µM	–	> 100 µM	–	> 100 µM	–	> 100 µM	–	> 100 µM	–	> 100 µM	–	> 100 µM	–	> 100 µM	–	> 100 µM	–	> 100 µM
CC1=Nc2c(ccc3c2C(=O)c2ccccc2C3=O)NC(c2cccc3c2CCC3)C1 (stereo not given)	–	> 100 µM	–	> 100 µM	–	> 100 µM	–	> 100 µM	–	> 100 µM	–	> 100 µM	–	> 100 µM	–	> 100 µM	–	> 100 µM	–	> 100 µM
CC(C)Nc1cc(-c2c[nH]c(C(=O)N[C@H](CO)c3cccc(Cl)c3)c2)c(Cl)cn1	0.516 µM and 0.366 µM	20.5 µM and > 10 µM	3.17 µM and > 3.67 µM	24.2 µM and > 10 µM	249 nM and 296 nM	16.7 µM and > 10 µM	0.795 µM and 0.36 µM	18.6 µM and > 10 µM	3.38 µM and 3.66 µM	40.5 µM and > 10 µM	0.104 µM and 0.076 µM	3.06 µM and 1.59 µM	0.0732 µM	0.519 µM	4.5 µM and > 5.45 µM	19.8 µM and > 10 µM	4.09 µM and 4.7 µM	> 100 µM	6.04 µM	20.2 µM and > 10 µM
COc1ccc2c(=O)cc(-c3ccccc3)[nH]c2c1	0.578 µM	> 100 µM	2.14 µM	> 100 µM	444 nM	> 100 µM	> 100 µM	> 100 µM	0.258 µM	–	0.364 µM	1.55 µM	0.335 µM	> 100 µM	–	> 100 µM	1.48 µM	> 100 µM	0.584 µM	3.37 µM
